#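 GI50 marks 50% less growth. TGI denotes the concentration required for complete inhibition of growth.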
# Key:
# Experiment in all cases: NCI anticancer screen, dose series, 384-well format
# HS 578T breast = system: HS 578T breast
# HOP-92 NSCLC = system: HOP-92 NSCLC
# M14 melanoma = system: M14 melanoma
# NCI-H23 lung = system: NCI-H23 lung
# HL-60(TB) leukemia = system: HL-60(TB) leukemia
# HT29 colon = system: HT29 colon
# NCI-H460 NSCLC = system: NCI-H460 NSCLC
# MDA-MB-468 breast = system: MDA-MB-468 breast
# MDA-MB-231 breast = system: MDA-MB-231 breast
# A498 renal = system: A498 renal
# MOLT-4 leukemia = system: MOLT-4 leukemia
# 786-0 renal = system: 786-0 renal
# SF-268 CNS = system: SF-268 CNS
# UACC-62 melanoma = system: UACC-62 melanoma
# SN12C renal = system: SN12C renal
# SK-OV-3 ovarian = system: SK-OV-3 ovarian
# PC-3 prostate = system: PC-3 prostate
# SK-MEL-28 melanoma = system: SK-MEL-28 melanoma
# SF-539 CNS = system: SF-539 CNS
# NCI-H522 lung = system: NCI-H522 lung
# KM12 colon = system: KM12 colon
# MDA-MB-435 melanoma = system: MDA-MB-435 melanoma
# MALME-3M melanoma = system: MALME-3M melanoma
# OVCAR-3 ovarian = system: OVCAR-3 ovarian
# NCI-H322M lung = system: NCI-H322M lung
# K-562 leukemia = system: K-562 leukemia
# TK-10 renal = system: TK-10 renal
# IGROV1 ovarian = system: IGROV1 ovarian
# UO-31 renal = system: UO-31 renal
# A549 NSCLC = system: A549 NSCLC
# SNB-75 CNS = system: SNB-75 CNS
# DU-145 prostate = system: DU-145 prostate
# HCT-116 colon = system: HCT-116 colon
# OVCAR-4 ovarian = system: OVCAR-4 ovarian
# ACHN renal = system: ACHN renal
# SNB-19 CNS = system: SNB-19 CNS
# SR leukemia = system: SR leukemia
# SW-620 colon = system: SW-620 colon
# CAKI-1 renal = system: CAKI-1 renal
# OVCAR-5 ovarian = system: OVCAR-5 ovarian
# BT-549 breast = system: BT-549 breast
# SK-MEL-2 melanoma = system: SK-MEL-2 melanoma
# U251 glioblastoma = system: U251 glioblastoma
smiles,measurement,setting,value
C=CC(=O)Nc1cc2c(Nc3ccc(OCc4ccccn4)c(Cl)c3)ncnc2cc1OCCN1CCOCC1,GI50,HS 578T breast,364 nM
same,TGI,HS 578T breast,2080 nM
same,GI50,HOP-92 NSCLC,1370 nM
same,TGI,HOP-92 NSCLC,2780 nM
same,GI50,M14 melanoma,1650 nM
same,TGI,M14 melanoma,3020 nM
same,GI50,NCI-H23 lung,1690 nM
same,TGI,NCI-H23 lung,4250 nM
same,GI50,HL-60(TB) leukemia,1530 nM
same,TGI,HL-60(TB) leukemia,2900 nM
same,GI50,HT29 colon,1590 nM
same,TGI,HT29 colon,2990 nM
same,GI50,NCI-H460 NSCLC,1530 nM
same,TGI,NCI-H460 NSCLC,3160 nM
same,TGI,MDA-MB-468 breast,40.5 nM
same,GI50,MDA-MB-231 breast,1280 nM
same,TGI,MDA-MB-231 breast,2910 nM
same,GI50,A498 renal,744 nM
same,TGI,A498 renal,2200 nM
same,GI50,MOLT-4 leukemia,1580 nM
same,TGI,MOLT-4 leukemia,2960 nM
same,GI50,786-0 renal,1350 nM
same,TGI,786-0 renal,2670 nM
same,GI50,SF-268 CNS,1420 nM
same,TGI,SF-268 CNS,2810 nM
same,GI50,UACC-62 melanoma,1380 nM
same,TGI,UACC-62 melanoma,2680 nM
same,GI50,SN12C renal,1100 nM
same,TGI,SN12C renal,2730 nM
same,GI50,SK-OV-3 ovarian,53.7 nM
same,TGI,SK-OV-3 ovarian,2350 nM
same,GI50,PC-3 prostate,1650 nM
same,TGI,PC-3 prostate,3110 nM
same,GI50,SK-MEL-28 melanoma,1550 nM
same,TGI,SK-MEL-28 melanoma,2910 nM
same,GI50,SF-539 CNS,1250 nM
same,TGI,SF-539 CNS,2510 nM
same,GI50,NCI-H522 lung,131 nM
same,TGI,NCI-H522 lung,1430 nM
same,GI50,KM12 colon,1750 nM
same,TGI,KM12 colon,3230 nM
same,GI50,MDA-MB-435 melanoma,1540 nM
same,TGI,MDA-MB-435 melanoma,2960 nM
same,GI50,MALME-3M melanoma,1700 nM
same,TGI,MALME-3M melanoma,3090 nM
same,GI50,OVCAR-3 ovarian,282 nM
same,TGI,OVCAR-3 ovarian,1880 nM
same,GI50,NCI-H322M lung,18.3 nM
same,TGI,NCI-H322M lung,1140 nM
same,GI50,K-562 leukemia,1490 nM
same,TGI,K-562 leukemia,2950 nM
same,GI50,TK-10 renal,30.5 nM
same,TGI,TK-10 renal,1540 nM
same,GI50,IGROV1 ovarian,27 nM
same,TGI,IGROV1 ovarian,1080 nM
same,GI50,UO-31 renal,1080 nM
same,TGI,UO-31 renal,2330 nM
same,GI50,A549 NSCLC,3110 nM
same,GI50,SNB-75 CNS,1390 nM
same,TGI,SNB-75 CNS,2920 nM
same,GI50,DU-145 prostate,499 nM
same,TGI,DU-145 prostate,2120 nM
same,GI50,HCT-116 colon,1480 nM
same,TGI,HCT-116 colon,2920 nM
same,GI50,OVCAR-4 ovarian,1130 nM
same,TGI,OVCAR-4 ovarian,2500 nM
same,GI50,ACHN renal,98 nM
same,TGI,ACHN renal,1690 nM
same,GI50,SNB-19 CNS,5380 nM
same,TGI,SNB-19 CNS,18300 nM
same,GI50,SR leukemia,1520 nM
same,TGI,SR leukemia,2890 nM
same,GI50,SW-620 colon,1730 nM
same,TGI,SW-620 colon,3160 nM
same,GI50,CAKI-1 renal,1180 nM
same,TGI,CAKI-1 renal,2420 nM
same,GI50,OVCAR-5 ovarian,3490 nM
same,TGI,OVCAR-5 ovarian,> 100000 nM
same,GI50,BT-549 breast,1160 nM
same,TGI,BT-549 breast,2380 nM
same,GI50,SK-MEL-2 melanoma,1300 nM
same,TGI,SK-MEL-2 melanoma,2580 nM
same,GI50,U251 glioblastoma,1520 nM
same,TGI,U251 glioblastoma,2930 nM
